# Reference: patent US20200337337A1, “ANIMAL FEED COMPOSITIONS COMPRISING MURAMIDASE AND USES THEREOF” (DSM IP ASSETS B.V., priority 2017, published 2020)
# Marks after values point to notes of the source that are not given here.
# Tested on: male broiler chickens (Cobb 500)
# Assay: Experiment in vivo 1: apparent ileal digestibility of crude protein, fat and energy
# Settings: supplemented feed: B Zn-Bacitracin 50 mg/kg; C Muramidase 40 000 U/g; Cobb 500 broilers
# Excerpt: Day-old male broiler chickens (Cobb 500) were supplied by a commercial hatchery (Joseph Grelier S. A., Elevage avicole de la Bohadière, F-49290 Saint-Laurent de la Plaine, France).
# On the day of arrival (day 1), the chickens were divided by weight into groups of 18 birds. Each group was placed in one floor-pen littered with wood shavings and allocated to one of the different treatments.
# Each treatment was replicated with 12 groups. The chickens were housed in an environmentally controlled room. The room temperature was adapted to the age of the birds. In the first few days an additional infra-red electric heating lamp was placed in each pen. Moreover, in the first week feed was offered to the birds as crumbled pellets, afterwards as pelleted feed. The birds had free access to feed and water.
# The experimental diets (Starter and Grower) were based on soybean meal, wheat and rye (12%) as main ingredients (Table 2). The diets were formulated to contain 210 g crude protein and 12.5 MJ/kg MEN for the starter period and 190 g crude protein and 12.9 MJ/kg MEN for the grower period.
# The diets were fed either unsupplemented (negative control) or supplemented with Muramidase and Zn-Bacitracin as follows:
# Appropriate amount of the solid product (Zn-Bacitracin) was mixed with a small quantity of the basal feed as a premix which was then added to the feed to get the final concentration, according to the treatments. After mixing the feed was pelleted (3×25 mm) at about 70° C.
# Appropriate amount of the liquid preparations of Muramidase was diluted in water and sprayed onto the respective pelleted feed to get the final concentrations in the feed corresponding to the different treatments. For procedural balance of all treatments the same volume of water were also sprayed onto the pellets of the control diets. […]
# Energy determinations were performed using an IKA®-Werke calorimeter (C 2000 basic). TiO2 concentration in feed and digesta were determined by Induction Coupled Plasma (ICP) according to DIN EN ISO 11885:1997 (DIN EN ISO 1998) after H2SO4/Na2SO4 mineralization. […]
substance,measurement,value
Zn-Bacitracin,Apparent ileal digestibility Energy (%),90.1^a %
same,Apparent ileal digestibility Fat (%),82.2^a %
same,Apparent ileal digestibility Protein (%),76.3^a %
